In US12102638B2 (Urovant Sciences GmbH, priority 2017, dated 2024):
One block for each molecule: values may come before it.

Legend:
[1] = tested on: patients with OAB; assay: Phase 2b vital sign changes (HR, SBP, DBP); format: in vivo, human; conditions: Tolterodine 4 mg
Source text: None led to discontinuation. The overall incidence of orthostatic symptoms was low.
Small differences in the percent of subjects exceeding categorical heart rate and blood pressure thresholds for vibegron were similar to those in the tolterodine arm.

[2] = tested on: patients with overactive bladder; assay: Phase 2b 52-week extension safety; format: in vivo, human; conditions: tolterodine ER 4 mg
Source text: There were no deaths reported during the study.

[3] = tested on: patients with overactive bladder
Source text: A placebo group was included in the main study, and a group that received tolterodine monotherapy was included in the main study and in the extension.

[4] = tested on: men and women with OAB; assay: Phase 2b study in OAB, efficacy (voiding diary); format: in vivo, human; conditions: tolterodine ER 4 mg once daily
Source text: Part 2 was designed to continue to assess the safety and efficacy of concomitant dosing. […] Subjects in both Part 1 and Part 2 had the option of enrolling in a 1-year extension. Participants were required to keep a voiding diary, recording the occurrence of each strong urge, total incontinence, and urge incontinence episode. Efficacy data for Part 1 and Part 2 are summarized herein.
The total number of urgency incontinence episodes must have exceeded the total number of stress incontinence episodes for all subjects.

[5] = tested on: healthy subjects; assay: thorough QT single oral dose study; format: in vivo, human; conditions: single dose of moxifloxacin 400 mg
[6] = mass balance study with [14C]vibegron in healthy subjects; conditions: human plasma at 2 and 4 hr
[7] = Tolterodine ER 4 mg, N = 257, first 12 weeks

Compound: Cc1ccc(O)c([C@H](CCN(C(C)C)C(C)C)c2ccccc2)c1 [Tolterodine ER, tolterodine]
DBP change from baseline, mean (95% CI) Max, week 1 to 8 [1]: 5.19 (4.26, 6.13) mm Hg
DBP change from baseline, mean (95% CI), week 1 [1]: −0.12 (−1.10, 0.86) mm Hg
HR change from baseline, mean (95% CI) maximum, week 1 to 8 [1]: 5.66 (4.69, 6.63) bpm
HR change from baseline, mean (95% CI), week 1 [1]: 0.68 (−0.31, 1.67) bpm
SBP change from baseline, mean (95% CI) maximum, week 1 to 8 [1]: 7.29 (6.01, 8.57) mm Hg
SBP change from baseline, mean (95% CI), week 1 [1]: 0.04 (−1.36, 1.43) mm Hg
drug-related SAE [2]: one drug-related SAE of ileus paralytic
incidence of dry mouth compared to the other treatment groups [2]: higher
frequency of injuries ([3]; Phase 2 program): 2.1%
Accidental overdose, % [3, 7]: (2.3) %
Alanine aminotransferase increased, % [3, 7]: (0.4) %
Arthralgia, % [3, 7]: (1.2) %
Aspartate aminotransferase increased, % [3, 7]: (0.0) %
Constipation, % [3, 7]: (1.9) %
Diarrhea, % [3, 7]: (3.5) %
Discontinuation due to AE, % [3, 7]: (1.6) %
Dizziness, % [3, 7]: (1.9) %
Drug-related AE, % [3, 7]: (16.3) %
Dry eye, % [3, 7]: (3.9) %
Dry mouth, % [3, 7]: (8.6) %
Dysuria, % [3, 7]: (1.2) %
Fatigue, % [3, 7]: (2.3) %
Headache, % [3, 7]: (3.5) %
Nasopharyngitis, % [3, 7]: (1.6) %
Nausea, % [3, 7]: (2.3) %
Osteoarthritis, % [3, 7]: (0.0) %
Pain in extremity, % [3, 7]: (0.4) %
Serious AE, % [3, 7]: (1.2) %
Sinusitis, % [3, 7]: (0.4) %
Urinary tract infection, % [3, 7]: (4.7) %
≥1 AE, % [3, 7]: (45.1) %
incidence of dry mouth compared to placebo or vibegron monotherapy groups ([3]; groups that received tolterodine (alone or with vibegron), main study): higher
SAEs reported ([3]; tolterodine 4 mg, main study): 3
Total Incontinence Episodes, change from baseline Week 8, mean ([4]; OAB Wet subjects): −1.80
Total Incontinence Episodes, daily number, Week 8 mean ([4]; OAB Wet subjects): 1.32
Total Incontinence Episodes, difference from placebo Week 8, LS means ([4]; OAB Wet subjects): −0.34
Urgency Incontinence Episodes, change from baseline Week 8, mean ([4]; OAB Wet subjects): −1.67
Urgency Incontinence Episodes, daily number, Week 8 mean ([4]; OAB Wet subjects): 1.15
Urgency Incontinence Episodes, difference from placebo Week 8, LS means ([4]; OAB Wet subjects): −0.46
Micturitions, change from baseline Week 8, mean ([4]; Part 1): −1.73
Micturitions, daily number, Week 8 mean ([4]; Part 1): 9.24
Micturitions, difference from placebo Week 8, LS means ([4]; Part 1): −0.54
Urgency Episodes, change from baseline Week 8, mean ([4]; Part 1): −2.52
Urgency Episodes, daily number, Week 8 mean ([4]; Part 1): 3.91
Urgency Episodes, difference from placebo Week 8, LS means ([4]; Part 1): −0.94
change from baseline in volume voided per micturition, difference from placebo in LS means ([4]; Week 8): 30.77 mL

Compound: COc1c(N2C[C@@H]3CCCN[C@@H]3C2)c(F)cc2c(=O)c(C(=O)O)cn(C3CC3)c12 [moxifloxacin, reference compound]
effect on QTcF [5]: statistically significant effect

share of total circulating drug-related material [6]: 12-14%
Compound: O=C(O)C1OC(OC(c2ccccc2)C2CCC(Cc3ccc(NC(=O)C4CCc5nccc(=O)n54)cc3)N2)C(O)C(O)C1O (stereo not drawn) [M7]
